Data as given in patent publication US6353004B1, “Peripherally acting anti-pruritic opiates” (Adolor Coporation, priority 1997, dated 2002).

Key:
[1] = tested on: Compound 48/80-induced scratching; assay: mouse scratch model: antagonism of Compound 48/80-induced scratching; assay type: in vivo, male Swiss albino mice; details: s.c.; for antagonism of Compound 48/80-induced scratching (in words): mice; for Mean % Inhibition of Scratching: Compound 48/80 challenge, scratching counted for 30 min
Protocol: Testing was performed in a mouse scratch model under blind conditions.
Groups of 8-10 male Swiss albino mice (Hilltop Lab Animals, Inc., Scottsdale, Pa.), weighing […], were used in the testing. They were housed under controlled temperature of 23-25° C. Food and water were freely available. Before the experiments, the mice were weighed, put into individual boxes and allowed to acclimate for 30 min.
Vehicle used to dissolve the test compounds: 20% w/w cremophor EL.
100 μl of the vehicle (3-5 doses, n=8-10) was injected s.c. into the back of the neck of mice 20 min. before challenging them with 100 μl of Compound 48/80 (2 mg/ml; […]) injected s.c. into the back of the neck.
To each mouse of a group of 8-10 mice previously subjected to the standard challenge various doses of the compounds, to be tested for anti-pruritic activity, were administered s.c. into the back of the neck.
For each group of 8-10 mice, the mean values for scratching were normalized to relative % antagonism of scratching and then plotted vs. dose of test compounds. Interval estimates of mean A50 were determined by nonlinear regression analysis (Kaleida Graph) and mean % inhibition of scratching was calculated.

[2] = i.v. administration; cited from earlier work

Compound | antagonism of Compound 48/80-induced scratching (in words) [1] | generalized itching, share of patients [2] | Mean % Inhibition of Scratching ([1]; dose 2.5 mg/kg) | Mean % Inhibition of Scratching ([1]; dose 5.0 mg/kg) | Mean % Inhibition of Scratching ([1]; dose 10.0 mg/kg) | Mean % Inhibition of Scratching ([1]; dose 1.0 mg/kg)
CN(C)C(=O)C(CCN1CCC(O)(c2ccc(Cl)cc2)CC1)(c1ccccc1)c1ccccc1.Cl [(3), reference compound] | antagonized Compound 48/80-induced scratching in a dose-related manner |  |  |  |  | 
CN1CC[C@]23c4c5ccc(O)c4O[C@H]2[C@@H](O)C=C[C@H]3[C@H]1C5 [morphine] |  | about 1% |  |  |  | 
Cl.O=C(O)C1(c2ccccc2)CCN(CCC(c2ccccc2)(c2ccccc2)c2ccccn2)CC1 [(1), 1-[3,3-diphenyl-3-(2-pyridyl)propyl]-4-phenyl-4-piperidinecarboxylic acid hydrochloride] | antagonized Compound 48/80-induced scratching in a dose-related manner |  | 32% | 65% | 83% | 
OC1(Cc2ccc(Cl)cc2)CCN(CCC(c2ccccc2)(c2ccccc2)c2ccccc2)CC1 [(2), 1-(3,3,3-triphenylpropyl)-4-hydroxy-4-p-chlorobenzylpiperidine] | antagonized Compound 48/80-induced scratching in a dose-related manner |  | 68% | 94% |  | 35%
